Reference: publication PMC12679550 (ACS Chemical Neuroscience, 2025)
Where “and” joins values, the source holds several entries; their conditions need not be identical. Identical values can stand only once. Entries after “also recorded” stand apart in the source; their conditions may differ. Like-named read-outs stand apart in the source and are kept apart here.

Assays:
D1-dopamine receptors = molecular target: T1, D1-dopamine receptors (Homo sapiens, UniProt P21728); test: Eurofins Cerep radioligand binding screen; conditions: 10 μM
T1 construct: Eurofins Cerep; host or cells: cell membrane homogenates
T1 sequence (P21728 whole entry): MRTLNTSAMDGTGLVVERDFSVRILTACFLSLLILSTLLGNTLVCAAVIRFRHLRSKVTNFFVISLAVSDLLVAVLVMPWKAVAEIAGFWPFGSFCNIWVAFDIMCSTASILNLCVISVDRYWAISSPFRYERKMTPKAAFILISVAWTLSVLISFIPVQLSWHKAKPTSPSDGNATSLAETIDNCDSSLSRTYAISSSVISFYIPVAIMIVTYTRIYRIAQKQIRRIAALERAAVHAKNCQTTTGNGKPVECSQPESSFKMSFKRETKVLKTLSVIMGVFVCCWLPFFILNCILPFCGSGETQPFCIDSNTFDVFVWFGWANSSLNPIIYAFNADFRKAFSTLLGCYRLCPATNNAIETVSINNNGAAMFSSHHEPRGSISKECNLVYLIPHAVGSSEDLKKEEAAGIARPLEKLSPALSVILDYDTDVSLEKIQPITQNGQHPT
Method: (§1) The compounds were screened at each target once, in duplicate, at 100 nM and 10 μM. […] The assay was valid if the reliability criteria, K i or IC50 values within 1/2 Log of historical values, were met. Radioligand binding assay methods were as previously described with only minor modifications , (see table in Supplementary Figure S4 for radioligands, protein sources, and assay test conditions). Briefly, cell membrane homogenates were incubated with either an antagonist or agonist radioligand in the absence or presence of the test compound in a buffer. A specific unlabeled agonist or antagonist at the target determined nonspecific binding. Following incubation, the samples were filtered rapidly under vacuum through glass fiber filters presoaked in a buffer and rinsed several times with an ice-cold buffer using a 48-sample or 96-sample cell harvester. Using a scintillation cocktail, the filters were counted for radioactivity in a scintillation counter. Compound binding was calculated as a percent inhibition of the binding of the radioactively labeled ligand specific for each target. Preparatory methods for enzyme inhibition assays were similar to radioligand binding assays. These assays involved using a known substrate, stimulus, and/or tracer, and detection methods included LANCE, fluorimetry, photometry, luminescence, or scintillation counting (see table in Supplementary Figure S4). Results of the screening assays showing an inhibition or stimulation higher than 50% were designated “hits” and considered to represent significant effects of the test compounds.

D2-dopamine receptors = molecular target: T2, D2-dopamine receptors (Homo sapiens, UniProt P14416); test: Eurofins Cerep radioligand binding screen; conditions: 10 μM
T2 construct: Eurofins Cerep; host or cells: cell membrane homogenates
T2 sequence (P14416 whole entry): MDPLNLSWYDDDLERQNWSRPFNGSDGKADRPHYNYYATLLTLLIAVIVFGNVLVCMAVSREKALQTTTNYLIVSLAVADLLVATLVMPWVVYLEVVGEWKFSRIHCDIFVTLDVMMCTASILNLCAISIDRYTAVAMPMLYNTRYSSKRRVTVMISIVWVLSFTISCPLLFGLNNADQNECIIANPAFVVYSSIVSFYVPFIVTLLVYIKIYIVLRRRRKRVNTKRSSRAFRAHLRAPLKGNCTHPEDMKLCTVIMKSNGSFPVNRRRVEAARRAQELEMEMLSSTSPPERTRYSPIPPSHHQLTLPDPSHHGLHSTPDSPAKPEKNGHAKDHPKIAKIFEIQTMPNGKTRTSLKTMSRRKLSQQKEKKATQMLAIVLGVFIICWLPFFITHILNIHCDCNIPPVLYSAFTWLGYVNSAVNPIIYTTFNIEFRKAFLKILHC
Method: as §1

D3-dopamine receptors = molecular target: T3, D3-dopamine receptors (Homo sapiens, UniProt P35462); test: Eurofins Cerep radioligand binding screen; conditions: 10 μM
T3 construct: Eurofins Cerep; host or cells: cell membrane homogenates
T3 sequence (P35462 whole entry): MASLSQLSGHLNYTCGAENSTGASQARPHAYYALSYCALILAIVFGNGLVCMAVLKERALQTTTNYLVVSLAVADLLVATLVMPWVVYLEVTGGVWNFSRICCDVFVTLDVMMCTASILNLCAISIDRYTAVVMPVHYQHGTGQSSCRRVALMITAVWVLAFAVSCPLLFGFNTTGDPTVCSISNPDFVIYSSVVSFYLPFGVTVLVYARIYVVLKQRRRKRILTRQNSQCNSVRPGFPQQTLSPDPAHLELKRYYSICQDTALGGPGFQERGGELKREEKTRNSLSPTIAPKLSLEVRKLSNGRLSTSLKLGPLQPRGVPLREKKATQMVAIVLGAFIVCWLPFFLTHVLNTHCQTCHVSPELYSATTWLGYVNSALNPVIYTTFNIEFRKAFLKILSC
Method: as §1

L-type Ca2+ channels = test: Eurofins Cerep radioligand binding screen; conditions: rat cerebral cortex; Figure S6
Method: as §1

N-type Ca2+ channels = molecular target: T4, N-type Ca2+ channels (Rattus norvegicus, UniProt Q02294); test: Eurofins Cerep radioligand binding screen; conditions: rat cerebral cortex; Figure S6
T4 construct: Eurofins Cerep (contract screen)
Method: as §1

hERG potassium channels = molecular target: T5, hERG potassium channels (Homo sapiens, UniProt Q12809); test: Eurofins Cerep radioligand binding screen; conditions: 10 μM
T5 construct: Eurofins Cerep; host or cells: cell membrane homogenates
T5 sequence (Q12809 whole entry): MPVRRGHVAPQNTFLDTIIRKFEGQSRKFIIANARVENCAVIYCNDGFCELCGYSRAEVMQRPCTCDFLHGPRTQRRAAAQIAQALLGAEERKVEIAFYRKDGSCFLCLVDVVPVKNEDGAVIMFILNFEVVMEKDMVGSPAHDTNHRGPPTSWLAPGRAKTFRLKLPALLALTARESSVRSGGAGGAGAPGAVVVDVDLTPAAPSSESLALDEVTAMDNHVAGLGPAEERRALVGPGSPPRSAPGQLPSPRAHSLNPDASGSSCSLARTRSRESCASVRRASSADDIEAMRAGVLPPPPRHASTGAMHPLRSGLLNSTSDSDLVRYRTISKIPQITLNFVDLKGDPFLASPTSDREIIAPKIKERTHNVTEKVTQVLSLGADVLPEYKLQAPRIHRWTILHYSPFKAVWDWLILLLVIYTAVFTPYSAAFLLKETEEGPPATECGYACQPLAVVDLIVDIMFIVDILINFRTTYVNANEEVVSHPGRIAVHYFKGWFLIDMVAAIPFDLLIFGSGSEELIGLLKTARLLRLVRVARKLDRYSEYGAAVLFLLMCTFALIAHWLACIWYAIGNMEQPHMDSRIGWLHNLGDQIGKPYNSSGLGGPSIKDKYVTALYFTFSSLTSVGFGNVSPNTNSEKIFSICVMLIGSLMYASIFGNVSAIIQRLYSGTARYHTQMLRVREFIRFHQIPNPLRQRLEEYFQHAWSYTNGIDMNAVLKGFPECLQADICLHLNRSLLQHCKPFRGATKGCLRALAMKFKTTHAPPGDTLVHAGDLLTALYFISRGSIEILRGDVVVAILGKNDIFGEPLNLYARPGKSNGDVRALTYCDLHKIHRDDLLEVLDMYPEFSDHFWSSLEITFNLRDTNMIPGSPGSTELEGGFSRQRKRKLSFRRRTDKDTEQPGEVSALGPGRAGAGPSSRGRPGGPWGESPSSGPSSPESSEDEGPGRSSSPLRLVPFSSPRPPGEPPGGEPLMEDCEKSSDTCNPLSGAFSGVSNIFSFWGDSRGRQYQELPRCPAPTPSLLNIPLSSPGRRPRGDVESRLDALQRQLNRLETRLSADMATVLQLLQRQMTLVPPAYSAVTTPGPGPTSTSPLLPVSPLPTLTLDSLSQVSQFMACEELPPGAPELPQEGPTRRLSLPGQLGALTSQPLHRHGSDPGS
Method: as §1

serotonin transporter = molecular target: T6, serotonin transporter (Homo sapiens, UniProt P31645); test: Eurofins Cerep radioligand binding screen; conditions: 10 μM
T6 construct: Eurofins Cerep; host or cells: cell membrane homogenates
T6 sequence (P31645 whole entry): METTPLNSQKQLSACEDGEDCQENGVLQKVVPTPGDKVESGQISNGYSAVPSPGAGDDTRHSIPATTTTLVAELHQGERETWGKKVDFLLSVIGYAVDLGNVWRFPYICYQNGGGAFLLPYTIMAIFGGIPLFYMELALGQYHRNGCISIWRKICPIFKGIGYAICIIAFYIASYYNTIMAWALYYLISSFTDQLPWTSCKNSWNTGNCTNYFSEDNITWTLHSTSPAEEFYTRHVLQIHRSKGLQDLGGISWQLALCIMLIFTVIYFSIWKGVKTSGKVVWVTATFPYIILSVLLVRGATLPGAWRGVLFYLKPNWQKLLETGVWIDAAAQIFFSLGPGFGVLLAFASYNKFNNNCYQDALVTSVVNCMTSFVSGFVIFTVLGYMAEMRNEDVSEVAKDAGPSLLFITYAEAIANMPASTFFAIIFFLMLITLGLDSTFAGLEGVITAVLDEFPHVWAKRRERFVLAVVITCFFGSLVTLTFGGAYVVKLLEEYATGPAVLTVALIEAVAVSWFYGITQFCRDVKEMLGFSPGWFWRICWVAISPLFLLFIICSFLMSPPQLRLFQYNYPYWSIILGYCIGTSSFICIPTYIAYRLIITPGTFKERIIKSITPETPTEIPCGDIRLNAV
Method: as §1

[1] = system: voltage-gated sodium channels; test: Eurofins Cerep radioligand binding screen; conditions: 10 μM
Method: as §1

β2-adrenoceptors = molecular target: T7, β2-adrenoceptors (Homo sapiens, UniProt P07550); test: Eurofins Cerep radioligand binding screen; conditions: 10 μM
T7 construct: Eurofins Cerep; host or cells: cell membrane homogenates
Method: as §1

rat α2AR [2] = molecular target: T8, rat α2AR (Rattus norvegicus, UniProt P22909); conditions: agonist mode; CHO-K1 cells
T8 sequence (P22909 1-465): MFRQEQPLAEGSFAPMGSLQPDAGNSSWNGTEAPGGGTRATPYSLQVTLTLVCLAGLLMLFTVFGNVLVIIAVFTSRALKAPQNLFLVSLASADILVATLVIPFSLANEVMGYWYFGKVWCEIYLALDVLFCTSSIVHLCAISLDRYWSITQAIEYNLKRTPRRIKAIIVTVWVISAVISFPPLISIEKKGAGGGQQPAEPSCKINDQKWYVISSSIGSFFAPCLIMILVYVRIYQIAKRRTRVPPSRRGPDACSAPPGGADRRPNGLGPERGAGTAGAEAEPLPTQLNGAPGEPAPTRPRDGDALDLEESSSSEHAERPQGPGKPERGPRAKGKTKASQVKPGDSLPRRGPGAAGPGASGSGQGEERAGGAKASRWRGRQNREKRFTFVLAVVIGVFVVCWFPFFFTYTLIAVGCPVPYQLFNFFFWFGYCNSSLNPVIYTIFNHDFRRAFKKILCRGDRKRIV

rat α2AR [3] = molecular target: T8, rat α2AR; conditions: agonist mode; HEK293 cells; Figure S2
α2AR [4] = molecular target: T9, α2AR (Homo sapiens, UniProt P08913)
T9 sequence (P08913 1-465): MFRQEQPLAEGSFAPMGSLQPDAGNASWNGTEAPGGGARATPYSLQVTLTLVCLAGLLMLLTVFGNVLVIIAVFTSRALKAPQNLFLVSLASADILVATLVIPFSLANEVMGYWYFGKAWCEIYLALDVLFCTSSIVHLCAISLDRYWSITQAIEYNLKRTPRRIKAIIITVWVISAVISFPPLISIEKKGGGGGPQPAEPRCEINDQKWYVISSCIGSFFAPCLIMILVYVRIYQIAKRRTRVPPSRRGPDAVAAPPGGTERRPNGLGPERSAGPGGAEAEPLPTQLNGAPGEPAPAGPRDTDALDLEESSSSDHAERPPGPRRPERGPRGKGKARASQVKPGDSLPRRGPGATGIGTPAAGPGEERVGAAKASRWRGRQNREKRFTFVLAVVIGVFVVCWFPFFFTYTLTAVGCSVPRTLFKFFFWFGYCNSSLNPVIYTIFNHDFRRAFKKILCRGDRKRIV

α2AR [5] = molecular target: T9, α2AR; remark: listed apart in the source
human α2BRs = human α2BRs (Homo sapiens, UniProt P18089); conditions: 10 μM screen
Sequence of human α2BRs (P18089 whole entry): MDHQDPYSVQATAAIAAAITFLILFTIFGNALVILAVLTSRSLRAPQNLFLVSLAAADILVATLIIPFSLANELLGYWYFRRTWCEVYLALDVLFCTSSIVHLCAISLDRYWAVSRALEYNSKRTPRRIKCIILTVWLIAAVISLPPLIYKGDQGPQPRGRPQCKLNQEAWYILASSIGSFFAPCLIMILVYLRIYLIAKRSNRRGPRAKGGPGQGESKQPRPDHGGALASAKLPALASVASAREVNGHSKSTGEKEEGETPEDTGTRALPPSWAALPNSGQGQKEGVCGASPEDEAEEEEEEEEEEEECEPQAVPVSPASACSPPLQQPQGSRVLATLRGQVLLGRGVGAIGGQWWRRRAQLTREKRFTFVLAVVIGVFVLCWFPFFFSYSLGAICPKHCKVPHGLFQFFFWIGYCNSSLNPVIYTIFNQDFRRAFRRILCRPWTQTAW

[6] = male mice, 165 mg/kg PO; cited from earlier work

Substance: mitragynine
- Inhibition of radioligand binding, D1-dopamine receptors (D1-dopamine receptors): ~73%
- Inhibition of radioligand binding, D2-dopamine receptors (D2-dopamine receptors): ~70%
- Inhibition of radioligand binding, D3-dopamine receptors (D3-dopamine receptors): ~57%
- Affinity at L-type Ca2+ channels (L-type Ca2+ channels): no appreciable affinity
- Affinity at N-type Ca2+ channels (N-type Ca2+ channels): no appreciable affinity
- Inhibition of radioligand binding, hERG potassium channels (hERG potassium channels): ~51%
- Inhibition of radioligand binding, serotonin transporter (serotonin transporter): ~51%
- Inhibition of radioligand binding, voltage-gated sodium channels [1]: ~71%
- Inhibition of specific radioligand binding, β2-adrenoceptors (β2-adrenoceptors): > 60%
- Effect on forskolin-stimulated cAMP, rat α2AR (rat α2AR [2]): did not decrease forskolin-stimulated cAMP accumulation
- Effect on forskolin-induced cAMP, rat α2AR in HEK293 (rat α2AR [3]): no significant functional effects
- Kb (α2AR [4]; read-out: Kb, antagonist, β-arrestin, antagonist mode vs EC80 (0.01 μM) UK 14,304, Cheng–Prusoff): 5.01 µM
- β-arrestin2 recruitment, agonist mode (α2AR [4]; α2AR-expressing CHO-K1 cells): did not recruit β-arrestin2
- Activation of α2AR-Gαs(short) (α2AR [5]; Figure S1): did not activate α2AR–Gαs; also recorded: no effect
- Activation of the seven Gαi/o-protein subtypes coupled to α2AR (α2AR [5]; concentrations up to 30 μM): did not activate any of the seven Gαi/o-protein subtypes
- Activation of Gαq or Gα11 via α2ARs (α2AR [5]; data not shown): no effect
- Kb (α2AR [5]; read-out: Kb, antagonist, αi1, α2AR-Gαi1, antagonism of clonidine, Gaddum-Schild): 5.65 µM
- EC50, αgust (α2AR [5]; α2AR-Gαgust): inactive
- EC50, αi2 (α2AR [5]; α2AR-Gαi2): inactive
- EC50, αi3 (α2AR [5]; α2AR-Gαi3): inactive
- EC50, αoA (α2AR [5]; α2AR-GαoA): inactive
- EC50, αoB (α2AR [5]; α2AR-GαoB): inactive
- EC50, αz (α2AR [5]; α2AR-Gαz): inactive
- Activation of Gαi/o subtypes coupled to α2BRs (human α2BRs): no significant activity
- Peak brain concentration [6]: approximately 35 μg/g of wet brain tissue and ~88 μM
